The values below come from patent US6291657A (priority 1993, dated 2001).

SMILES strings stand for the structures. Entries after “also recorded” stand apart in the source; their conditions may differ.

The test system of assay [1] is glycolipid biosynthesis in HL-60 cells. The assay is described as follows: Inhibition of glycolipid biosynthesis in HL-60 cells, [14C]-palmitic acid labelling, 1D-TLC.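 For all read-outs here: cells cultured 24 h with or without test compound, total cellular lipids resolved by one-dimensional TLC and detected by autoradiography, inhibition shown as missing Glc-Cer and gangliosides versus untreated cells.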 As to conditions: for effect of N-alkyl chain length on inhibition of glycolipid biosynthesis (loss of detectable Glc-Cer): HL-60, 0.5 mM, 1D-TLC (FIG. 4); for inhibition of glycolipid biosynthesis: HL-60, 500 μM, 1D-TLC (FIG. 1). It counts as cell-based, human.

The subject of assay [2] is UDP-glucose:N-acylsphingosine glucosyltransferase. As to the kind of experiment: Inhibition of UDP-glucose:N-acylsphingosine glucosyltransferase. It counts as biochemical, rat brain, mouse macrophage (WEHI-3B). As to conditions: for IC50: highest concentrations tested, read-out: IC50 (not inhibitory).

As to `OC[C@H]1NC[C@H](O)[C@@H](O)[C@@H]1O` [DNJ, deoxynojirimycin], the “effect of N-alkyl chain length on inhibition of glycolipid biosynthesis (loss of detectable Glc-Cer)” value in assay [1] is “no effect”. Besides, the “inhibition of glucose transfer” value in assay [2] (highest concentration tested 6.1 mM (FIG. 8)) was “not inhibitory at the highest concentration tested”. In addition, in assay [2], the IC50 (in general, the point on the concentration scale where inhibition reaches its midpoint) was above 5 mM.
On to `CN1C[C@H](O)[C@@H](O)[C@H](O)[C@H]1CO` [N-methyl DNJ], for which the “effect of N-alkyl chain length on inhibition of glycolipid biosynthesis (loss of detectable Glc-Cer)” value in assay [1] is given as “no effect”.
As for `CCCCN1C[C@@H](O)[C@H](O)[C@H](O)[C@@H]1C` [NB-DFJ], in assay [1], the “inhibition of glycolipid biosynthesis” value was “without effect”.
Consider `CCN1C[C@H](O)[C@@H](O)[C@@H](O)[C@H]1CO` [N-ethyl DGJ], for which the “effect of N-alkyl chain length on inhibition of glycolipid biosynthesis (loss of detectable Glc-Cer)” value in assay [1] is “no effect; also recorded: inactive”.
As for `CCCCN1C[C@H](NC(C)=O)[C@@H](O)[C@H](O)[C@H]1CO` [NB-NAG, N-butyl 2-acetamido-1,2,5-trideoxy-1,5-imino-D-glucitol], the “inhibition of glycolipid biosynthesis” value in assay [1] was “without effect”.
On to `OC[C@H]1NC[C@H](O)[C@@H](O)[C@H]1O` [DGJ, Deoxygalactonojirimycin], for which the “effect of N-alkyl chain length on inhibition of glycolipid biosynthesis (loss of detectable Glc-Cer)” value in assay [1] is “no effect; also recorded: inactive”. Also, the “inhibition of glucose transfer” value in assay [2] (highest concentration tested 5.0 mM (FIG. 8)) is on record as “not inhibitory at the highest concentration tested”. In assay [2], the IC50 was above 5 mM.
With `CCCCN1C[C@@H](O)[C@@H](O)[C@H](O)[C@H]1CO` [NB-DMJ, N-butyl deoxymannojirimycin], the “inhibition of glycolipid biosynthesis” value in assay [1] is reported as “without effect”.
Take `CCCN1C[C@H](O)[C@@H](O)[C@@H](O)[C@H]1CO` [N-propyl DGJ, N-propyl deoxygalactonojirimycin]: the “effect of N-alkyl chain length on inhibition of glycolipid biosynthesis (loss of detectable Glc-Cer)” value in assay [1] is given as “partial inhibitory activity; also recorded: partially active”.
On the same count and under the same terms, in the case of `CN1C[C@H](O)[C@@H](O)[C@@H](O)[C@H]1CO` [N-methyl DGJ] it was “no effect; also recorded: inactive”; in that of `CCCN1C[C@H](O)[C@@H](O)[C@H](O)[C@H]1CO` [N-propyl DNJ], “partial inhibitory activity”.
The same measure, in the same setting: in the case of `CCCCCCN1C[C@H](O)[C@@H](O)[C@H](O)[C@H]1CO` [N-hexyl DNJ] it was “completely inhibited glycolipid biosynthesis”.
